Source: patent publication US12558363B2, “Compositions for clinical complications associated to devices implanted in the urinary tract” (Devicare SL, priority 2019, dated 2026)
Values joined by “and” are separate entries in the source; they are usually repeats but may differ in a detail not shown here. Identical values can stand only once. “Also recorded” adds a separate entry of the source.

Experiments:
Mucin = test: Conditioning film generation: accumulated protein on medical device fragment in continuous flow artificial urine system (Lowry); conditions: for Quantity of accumulated protein (Mucin), Experiment 1 / Quantity of accumulated protein (Mucin), Experiment 2: 48 hours irrigation of Tygon fragment, pH 6.5; for Quantity of accumulated protein (Mucin), Experiment 1 / Quantity of accumulated protein (Mucin), Experiment 2 / Quantity of accumulated protein (Mucin), Average: NAC 20 mg/L and/or phytate 2 ppm; for Quantity of accumulated protein (Mucin), Average: average of Experiments 1 and 2, 48 hours; for Reduction in the precipitation of protein, compounds tested individually: phytate 2 ppm or NAC 20 mg/L alone, compared with the combination
[1] = Struvite crystal formation/adhesion on catheter portions in artificial urine; conditions: for Struvite crystals formation ratio (crystals without phytate divided by crystals with phytate) / # struvite crystals with phytate (2 ppm): phytate 2 ppm; for # struvite crystals with phytate (2 ppm): pH 7.2, 37° C., not washed catheter portion
[2] = test system: Pseudomonas aeruginosa PAO1; type: cell-based; conditions: 24 h

## CC(=O)N[C@@H](CS)C(=O)O [NAC, N-acetylcysteine, reference compound]
Mucin
  Quantity of accumulated protein (Mucin), Experiment 1: 30.0 mg/L
  Quantity of accumulated protein (Mucin), Experiment 2: 66.5 mg/L
  Quantity of accumulated protein (Mucin), Average: 48.3 mg/L
  Reduction in the precipitation of protein, compounds tested individually: a reduction in the precipitation was observed but of less intensity

## O=P(O)(O)O[C@H]1[C@H](OP(=O)(O)O)[C@@H](OP(=O)(O)O)[C@H](OP(=O)(O)O)[C@@H](OP(=O)(O)O)[C@H]1OP(=O)(O)O [phytate, myo-inositol-hexaphosphate]
Mucin
  Quantity of accumulated protein (Mucin), Experiment 1: 33.0 mg/L
  Quantity of accumulated protein (Mucin), Experiment 2: 57.5 mg/L
  Quantity of accumulated protein (Mucin), Average: 45.3 mg/L
  Reduction in the precipitation of protein, compounds tested individually: a reduction in the precipitation was observed but of less intensity
[1]; 9.28 g/L NH4+, 1 ppm phytate (FIG. 3B)
  Struvite crystals adhered in catheters: 2 crystals
[1]; 18.56 g/L NH4+, 1 ppm phytate (FIG. 3D)
  Struvite crystals adhered in catheters: 5 crystals
[1]; 24 h
  Size of struvite crystals formed (electron microscopy): smaller than the crystals formed in absence of phytate
[1]; time of reaction 12 hours
  Struvite crystals formation ratio (crystals without phytate divided by crystals with phytate): 1.45
  # struvite crystals with phytate (2 ppm): 20
[1]; time of reaction 24 hours
  Struvite crystals formation ratio (crystals without phytate divided by crystals with phytate): 3.85 and 2.4
  # struvite crystals with phytate (2 ppm): 6.5 and 5
[2]
  Number of adhered bacteria in the surface of incubated catheters: significative decrease; also recorded: lower
